From patent publication US20240287138A1, “CYCLIC PEPTIDES FOR INHIBITING TNF RECEPTOR 1 ACTIVITY” (Merck Sharp & Dohme LLC, priority 2023, published 2024) come the findings set out here.

What is called IC50 is the midpoint of a concentration-inhibition curve.

Molecules are shown by their SMILES. Where two headings read alike, the source gives them in different places. Numbered stars: 1 amine (or outer) side, 2 acyl side, 3 side chain; on linkers, the order of the positions; unused ones are H or OH. Bridge positions count the residues as written; N and C are the ends. Square brackets hold non-standard residues; d marks the D form. Peptide text beside a SMILES is read from it. * marks the point of attachment. Trp(βS-Me,7-OMe) = COc1cccc2c([C@H](C)[C@H](N)C(=O)O)c[nH]c12; Phe(3R-OH) = O=C([C@@H](N[*:1])[C@H](O[*:3])c1ccccc1)[*:2]; X56 = Cc1cccc2c([C@H](C)[C@H](N[*:1])C(=O)[*:2])c[nH]c12; Trp(1-CH2COOH) = N[C@@H](Cc1cn(CC(=O)O)c2ccccc12)C(=O)O; X44 = NC(=O)c1ccc([C@@H](O)[C@H](N[*:1])C(=O)[*:2])cc1; Phe(4-SO2NH2) = N[C@@H](Cc1ccc(S(N)(=O)=O)cc1)C(=O)O; Phe(4-SO3H) = N[C@@H](Cc1ccc(S(=O)(=O)O)cc1)C(=O)O; Trp(7-CN) = N#Cc1cccc2c(C[C@H](N)C(=O)O)c[nH]c12; Trp(7-Cl) = N[C@@H](Cc1c[nH]c2c(Cl)cccc12)C(=O)O; X62 = O=C(O)c1ccc(C[C@H](N[*:1])C(=O)[*:2])cc1Cl; Phe(4-CONH2) = NC(=O)c1ccc(C[C@H](N)C(=O)O)cc1; Phe(4-COOH) = N[C@@H](Cc1ccc(C(=O)O)cc1)C(=O)O; X59 = O=C([C@H](Cc1[nH]nc2ccccc12)N[*:1])[*:2]; Trp(7-aza) = N[C@@H](Cc1c[nH]c2ncccc12)C(=O)O; X58 = O=C([C@H](CCCCC(F)(F)F)N[*:1])[*:2]; Pip(5R-OH) = O=C(O)[C@@H]1CC[C@@H](O)CN1; X1 = O=C([C@@H]1CC[C@H](N[*:1])C1)[*:2]; X53 = O=C([C@H](Cc1ccncc1F)N[*:1])[*:2]; Pip(4-aza) = O=C(O)[C@@H]1CNCCN1; 4Pal = N[C@@H](Cc1ccncc1)C(=O)O; NMeE = CN[C@@H](CCC(=O)O)C(=O)O; dHyp = O=C(O)[C@H]1C[C@H](O)CN1; Pip = O=C(O)[C@@H]1CCCCN1; αMeS = C[C@](N)(CO)C(=O)O; Carboxymethyl = O=C(O)C*; Nle = CCCC[C@H](N)C(=O)O; Sar = CNCC(=O)O

The target in experiment [1] is T1, TNFα-induced NF-κB signal transduction pathway (TNFR1 signaling) in THP-1 cells (Homo sapiens, UniProt P19438).
T1 sequence (P19438 30-455): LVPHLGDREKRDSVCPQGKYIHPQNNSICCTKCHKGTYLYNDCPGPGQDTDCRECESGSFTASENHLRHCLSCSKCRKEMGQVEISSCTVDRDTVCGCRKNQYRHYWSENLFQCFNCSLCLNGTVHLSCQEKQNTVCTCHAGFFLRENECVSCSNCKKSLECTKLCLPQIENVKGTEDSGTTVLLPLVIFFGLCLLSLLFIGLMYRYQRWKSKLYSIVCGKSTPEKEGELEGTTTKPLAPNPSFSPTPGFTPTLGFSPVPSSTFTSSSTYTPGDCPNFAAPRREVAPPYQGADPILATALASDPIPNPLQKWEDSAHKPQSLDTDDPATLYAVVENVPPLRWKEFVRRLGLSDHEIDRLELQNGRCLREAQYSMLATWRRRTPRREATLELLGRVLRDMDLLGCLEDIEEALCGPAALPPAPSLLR
Briefly: THP-1 Lucia NF-κB reporter cell assay, inhibition of TNFα-induced NF-κB signaling. The experiment is classed as cell-based. As to conditions: THP-1 NF-κB Lucia reporter cells, 10 ng/mL TNFα, 16-18 h, secreted luciferase; read-out: THP-1 IC50. The procedure, abridged:
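Inhibition of TNFR1-driven NF-κB activation was measured as luminescence of secreted reporter luciferase following overnight (16-18 h) stimulation with 10 ng/mL TNFα.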

In experiment [2] the target is T2, human soluble TNFR1 (sTNFR1) (Homo sapiens, UniProt P19438).
T2 construct: made in house; host or cells: Sf21 (baculovirus)
T2 sequence (P19438 with tags, fused parts or gaps): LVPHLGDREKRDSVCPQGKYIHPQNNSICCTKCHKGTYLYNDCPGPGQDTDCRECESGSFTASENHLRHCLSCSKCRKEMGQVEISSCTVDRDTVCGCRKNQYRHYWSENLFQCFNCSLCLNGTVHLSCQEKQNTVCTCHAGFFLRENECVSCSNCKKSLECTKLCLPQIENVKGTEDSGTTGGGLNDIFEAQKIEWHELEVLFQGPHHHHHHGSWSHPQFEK
Put plainly: Human sTNFR1-peptide displacement assay (LanthaScreen Eu TR-FRET binding assay). The procedure, abridged:
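Readout is the 665/615 nm TR-FRET ratio (Eu anti-His donor, streptavidin-Alexa647 acceptor), normalized to DMSO and saturating displacer, fit by Morrison-based five-parameter logistic for Kd^app. His-tagged sTNFR1 (1-211) prebound to 100 nM biotinylated peptide SEQ ID NO.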
Background: TR-FRET usually uses a lanthanide donor and a delayed reading to cut background.

For `CCCC[C@@H]1NC(=O)[C@@H]2CC[C@@H](C2)NC(=O)[C@H]([C@@H](C)c2c[nH]c3c(OC)cccc23)NC(=O)CN(C)C(=O)[C@H](Cc2ccc(O)cc2)NC(=O)[C@H](Cc2ccc(C(=O)O)cc2)NC(=O)[C@](C)(CO)NC(=O)[C@H](Cc2c[nH]c3c(Cl)cccc23)NC(=O)[C@H](Cc2ccncc2F)NC(=O)[C@H](CC(N)=O)NC(=O)[C@H](CCC(=O)O)N(C)C(=O)[C@H](Cc2c[nH]c3ccccc23)NC(=O)[C@@H]2CNCCN2C(=O)[C@H](Cc2ccncc2)NC1=O` [SEQ ID NO. 198] (cyclo([4Pal][Pip(4-aza)]W[NMeE]N[X53][Trp(7-Cl)][αMeS][Phe(4-COOH)]Y[Sar][Trp(βS-Me,7-OMe)][X1][Nle])), in experiment [1], the IC50 is 0.8 nM. Also, the Kd in experiment [2] worked out at 0.31 nM.

For the compound `CCCC[C@@H]1NC(=O)[C@@H]2CC[C@@H](C2)NC(=O)[C@H]([C@@H](C)c2c[nH]c3c(OC)cccc23)NC(=O)CN(C)C(=O)[C@H](Cc2ccc(O)cc2)NC(=O)[C@H](Cc2ccc(S(=O)(=O)O)cc2)NC(=O)[C@](C)(CO)NC(=O)[C@H](Cc2c[nH]c3c(Cl)cccc23)NC(=O)[C@H](Cc2ccncc2)NC(=O)[C@H](CC(N)=O)NC(=O)[C@H](CCC(=O)O)N(C)C(=O)[C@H](Cc2c[nH]c3ccccc23)NC(=O)[C@@H]2CNCCN2C(=O)[C@H](Cc2ccncc2)NC1=O` [SEQ ID NO. 199] (cyclo([4Pal][Trp(7-Cl)][αMeS][Phe(4-SO3H)]Y[Sar][Trp(βS-Me,7-OMe)][X1][Nle][4Pal][Pip(4-aza)]W[NMeE]N)), in experiment [1], the IC50 was 1 nM. This compound came in with a Kd in experiment [2] of 0.32 nM.

As for `CCCC[C@@H]1NC(=O)[C@@H]2CC[C@@H](C2)NC(=O)[C@H]([C@@H](C)c2c[nH]c3c(OC)cccc23)NC(=O)CN(C)C(=O)[C@H](Cc2ccc(O)cc2)NC(=O)[C@H](Cc2ccc(C(=O)O)cc2)NC(=O)[C@](C)(CO)NC(=O)[C@H](Cc2c[nH]c3c(Cl)cccc23)NC(=O)[C@H](Cc2ccncc2)NC(=O)[C@H](CC(N)=O)NC(=O)[C@H](CCC(=O)O)N(C)C(=O)[C@H](Cc2c[nH]c3ccccc23)NC(=O)[C@@H]2CNCCN2C(=O)[C@H](Cc2ccncc2F)NC1=O` [SEQ ID NO. 201] (cyclo([4Pal][Trp(7-Cl)][αMeS][Phe(4-COOH)]Y[Sar][Trp(βS-Me,7-OMe)][X1][Nle][X53][Pip(4-aza)]W[NMeE]N)), in experiment [1], the IC50 was found to be 0.9 nM. Moreover, in experiment [2], the Kd is 0.21 nM.

In the case of `CCCC[C@@H]1NC(=O)[C@@H]2CC[C@@H](C2)NC(=O)[C@H]([C@@H](C)c2c[nH]c3c(OC)cccc23)NC(=O)CN(C)C(=O)[C@H](Cc2ccc(C(=O)O)cc2)NC(=O)[C@H](Cc2ccc(S(N)(=O)=O)cc2)NC(=O)[C@](C)(CO)NC(=O)[C@H](Cc2c[nH]c3c(C#N)cccc23)NC(=O)[C@H](Cc2ccc(C(=O)O)cc2)NC(=O)[C@H](CC(N)=O)NC(=O)[C@H]2C[C@H](OCC(=O)O)CN2C(=O)[C@H](Cc2[nH]nc3ccccc23)NC(=O)[C@@H]2CC[C@@H](O)CN2C(=O)[C@H](Cc2ccncc2)NC1=O` [SEQ ID NO. 204] (cyclo([4Pal][Pip(5R-OH)][X59][dHyp](Carboxymethyl)N[Phe(4-COOH)][Trp(7-CN)][αMeS][Phe(4-SO2NH2)][Phe(4-COOH)][Sar][Trp(βS-Me,7-OMe)][X1][Nle])), the IC50 in experiment [1] is 0.8 nM. Further, the Kd in experiment [2] came out at 0.11 nM.

On to `CCCC[C@@H]1NC(=O)[C@@H]2CC[C@@H](C2)NC(=O)[C@H]([C@@H](C)c2c[nH]c3c(OC)cccc23)NC(=O)CN(C)C(=O)[C@H](Cc2ccc(C(=O)O)c(Cl)c2)NC(=O)[C@H](Cc2ccc(C(N)=O)cc2)NC(=O)[C@](C)(CO)NC(=O)[C@H](Cc2c[nH]c3c(C#N)cccc23)NC(=O)[C@H](Cc2ccc(C(=O)O)c(Cl)c2)NC(=O)[C@H](CC(N)=O)NC(=O)[C@H]2C[C@H](O)CN2C(=O)[C@H](Cc2c[nH]c3ccccc23)NC(=O)[C@@H]2CC[C@@H](O)CN2C(=O)[C@H](Cc2ccncc2)NC1=O` [SEQ ID NO. 207] (cyclo([4Pal][Pip(5R-OH)]W[dHyp]N[X62][Trp(7-CN)][αMeS][Phe(4-CONH2)][X62][Sar][Trp(βS-Me,7-OMe)][X1][Nle])), for which the IC50 in experiment [1] is 1 nM. The compound also had a Kd in experiment [2] of 0.12 nM.

With `CCCC[C@@H]1NC(=O)CSC[C@@H](C(N)=O)NC(=O)[C@H]([C@@H](C)c2c[nH]c3c(C)cccc23)NC(=O)CN(C)C(=O)[C@H](Cc2ccc(O)cc2)NC(=O)[C@H](Cc2ccc(C(=O)O)cc2)NC(=O)[C@](C)(CO)NC(=O)[C@H](Cc2c[nH]c3c(Cl)cccc23)NC(=O)[C@H](Cc2ccncc2)NC(=O)[C@H](CC(N)=O)NC(=O)[C@H](CCC(=O)O)N(C)C(=O)[C@H](Cc2c[nH]c3ccccc23)NC(=O)[C@@H]2CCCCN2C(=O)[C@H](Cc2ccncc2)NC1=O` [SEQ ID NO. 208] ({CH2CO}-[Nle][4Pal][Pip]W[NMeE]N[4Pal][Trp(7-Cl)][αMeS][Phe(4-COOH)]Y[Sar][X56]C-NH2; thioether N-14), the IC50 worked out at 4 nM in experiment [1] and 1.31 nM in experiment [2].

On to `CCCC[C@@H]1NC(=O)[C@@H]2CC[C@@H](C2)NC(=O)[C@H]([C@@H](C)c2c[nH]c3c(OC)cccc23)NC(=O)CN(C)C(=O)[C@H]([C@H](O)c2ccc(C(N)=O)cc2)NC(=O)[C@H](Cc2ccc(S(N)(=O)=O)cc2)NC(=O)[C@](C)(CO)NC(=O)[C@H](Cc2c[nH]c3c(C#N)cccc23)NC(=O)[C@H](Cc2ccc(C(=O)O)cc2)NC(=O)[C@H](CC(N)=O)NC(=O)[C@H]2C[C@H](O)CN2C(=O)[C@H](Cc2cn(CC(=O)O)c3ccccc23)NC(=O)[C@@H]2CC[C@@H](O)CN2C(=O)[C@H](Cc2ccncc2)NC1=O` [SEQ ID NO. 210] (cyclo([4Pal][Pip(5R-OH)][Trp(1-CH2COOH)][dHyp]N[Phe(4-COOH)][Trp(7-CN)][αMeS][Phe(4-SO2NH2)][X44][Sar][Trp(βS-Me,7-OMe)][X1][Nle])), for which the IC50 in experiment [1] is 0.5 nM. Besides, in experiment [2] (displacement of biotinylated peptide SEQ ID NO. 1 from sTNFR1, 20 point titration, 5-parameter fit based on Morrison equation (tight binding), read-out: TR-FRET Kd^app), the Kd amounted to 0.12 nM.

For the compound `CCCC[C@@H]1NC(=O)CSC[C@@H](C(N)=O)NC(=O)[C@H]([C@@H](C)c2c[nH]c3c(OC)cccc23)NC(=O)CN(C)C(=O)[C@H](Cc2ccc(O)cc2)NC(=O)[C@H](Cc2ccc(C(=O)O)cc2)NC(=O)[C@](C)(CO)NC(=O)[C@H](Cc2c[nH]c3c(Cl)cccc23)NC(=O)[C@H](Cc2ccncc2)NC(=O)[C@H](CC(N)=O)NC(=O)[C@H](CCC(=O)O)N(C)C(=O)[C@H](Cc2c[nH]c3ncccc23)NC(=O)[C@H]([C@H](O)c2ccccc2)NC(=O)[C@H](Cc2ccncc2)NC1=O` [SEQ ID NO. 211] ({CH2CO}-[Nle][4Pal][Phe(3R-OH)][Trp(7-aza)][NMeE]N[4Pal][Trp(7-Cl)][αMeS][Phe(4-COOH)]Y[Sar][Trp(βS-Me,7-OMe)]C-NH2; thioether N-14), the IC50 is 3.3 nM in experiment [1] and 0.79 nM in experiment [2]. In experiment [2], this compound registered a Kd of 0.63 nM.

Turning to `COc1cccc2c([C@H](C)[C@@H]3NC(=O)CN(C)C(=O)[C@H](Cc4ccc(O)cc4)NC(=O)[C@H](Cc4ccc(C(=O)O)cc4)NC(=O)[C@](C)(CO)NC(=O)[C@H](Cc4c[nH]c5c(Cl)cccc45)NC(=O)[C@H](Cc4ccncc4)NC(=O)[C@H](CC(N)=O)NC(=O)[C@H](CCC(=O)O)N(C)C(=O)[C@H](Cc4c[nH]c5ccccc45)NC(=O)[C@@H]4CNCCN4C(=O)[C@H](Cc4ccncc4)NC(=O)[C@H](CCCCC(F)(F)F)NC(=O)[C@@H]4CC[C@@H](C4)NC3=O)c[nH]c12` [SEQ ID NO. 213] (cyclo([4Pal][Trp(7-Cl)][αMeS][Phe(4-COOH)]Y[Sar][Trp(βS-Me,7-OMe)][X1][X58][4Pal][Pip(4-aza)]W[NMeE]N)), the IC50 in experiment [1] was 1 nM. Moreover, in experiment [2], the Kd was determined as 0.31 nM.
